Data on four compounds can be found in patent US20250043299A1, “POINT MUTATIONS THAT BOOST AROMATIC AMINO ACID PRODUCTION AND CO2 ASSIMILATION IN PLANTS” (Wisconsin Alumni Research Foundation, priority 2021, published 2025).

Format in all cases: biochemical
One assay deals with T1, DHS1^B4 (Arabidopsis thaliana, UniProt P29976, G244R).
T1 construct: without the predicted plastid transit peptide (amino acid residues; 49-525, 34-507, and 52-527, respectively); made in house; host or cells: E. coli
The experiment in a line: DHS enzyme assay, recombinant DHS1^B4. The note with it: recombinant enzyme; for IC50: read-out: IC50 of effector molecule on DHS1^B4. On the procedure:
(§1) To generate recombinant DHS proteins the pET28a vectors carrying the A. thaliana DHS1 (AtDHS1), AtDHS2, or AtDHS3 WT sequence without the predicted plastid transit peptide (amino acid residues; 49-525, 34-507, and 52-527, respectively) were expressed in E. coli Rosetta-2 cells and purified using Ni-affinity chromatography, exactly as was conducted previously (9). To generate DHS proteins with individual sota mutations via site-directed mutagenesis, these pET28a plasmid templates were diluted by 500-fold, mixed with 0.04 U/μL Phusion DNA polymerase (Thermo Scientific), 0.2 mM deoxynucleoside triphosphates (dNTPs), 1× Phusion reaction buffer (Thermo Scientific), and 0.5 μM forward and reverse mutagenesis primers (Table 10). The PCR reaction was run using the following protocol: 98° C. for 30 s followed by 20 cycles of 10 s at 98° C., 20 s at 70° C., 4.5 min at 72° C. with a final extension at 72° C. for 10 min. The PCR products were purified using a QIAquick Gel Extraction Kit (QIAGEN), treated with FastDigest DpnI (Thermo Scientific) to digest methylated plasmid template DNA for 20 min at 37° C., and transformed into E. coli cells. The mutagenized pET28a plasmids were sequenced to confirm that no errors were introduced during the mutagenesis process.
(§2) The DHS enzyme assays were conducted using the colorimetric method that we recently described (9). Briefly, the enzyme solution (7.7 μl) containing 50 mM Hepes (pH 7.4) was preincubated with an effector molecule(s) at room temperature for 15 min. For assays using recombinant protein and enzyme fractions isolated from plant leaves, 0.01 to 0.1 μg and approximately 50 μg of proteins were used, respectively. After adding 0.5 μl of 0.1 M dithiothreitol, the samples were further incubated at room temperature for 15 min. During these incubations, the substrate solution containing 50 mM Hepes (pH 7.4), 2 mM MnCl2, 4 mM E4P, and 4 mM PEP at final concentration was preheated at 37° C. The enzyme reaction was started by adding 6.8 μl of the substrate solution, then incubated at 37° C. for 30 min, and terminated by adding 30 μl of 0.6 M trichloroacetic acid. After a brief centrifugation, 5 μl of 200 mM NaIO4 (sodium meta-periodate) in 9 N H3PO4 was added to oxidize the enzymatic product and to incubate at 25° C. for 20 min. To stop the oxidation reaction, 20 μl of 0.75 M NaAsO2 (sodium arsenite), which was dissolved in 0.5 M Na2SO4 and 0.05 M H2SO4, was added and immediately mixed. After 5 min of incubation at room temperature, one-third of the sample solution was transferred to a new tube to be mixed with 50 μl of 40 mM thiobarbituric acid and incubated at 99° C. for 15 min in a thermal cycler. The mixture was added to 600 μl of cyclohexanone in eight-strip solvent-resistant plastic tubes, mixed vigorously, and centrifuged at 4500 g for 3 min to separate water- and cyclohexanone-based layers for the extraction off the developed pink chromophore. The absorbance of the pink supernatant was read at 549 nm with the microplate reader (Infinite 200 PRO, TECAN) to calculate DAHP production with the molar extinction coefficient at 549 nm (ε=549 nm) of 4.5×10^4 M^−1 cm^−1. Reaction mixtures with boiled enzymes were run in parallel and used as negative controls to estimate the background signal.

The next assay addresses T2, DHS2^A4 (Arabidopsis thaliana, UniProt Q00218, G222S).
T2 construct: without the predicted plastid transit peptide (amino acid residues; 49-525, 34-507, and 52-527, respectively); made in house; host or cells: E. coli
To be noted: for IC50: read-out: IC50 of effector molecule on DHS2^A4. On the procedure: as §1, §2

For a further assay, the target named is T3, DHS2^A11 (Arabidopsis thaliana, UniProt Q00218, A224T).
T3 construct: without the predicted plastid transit peptide (amino acid residues; 49-525, 34-507, and 52-527, respectively); made in house; host or cells: E. coli
The experiment in a line: DHS enzyme assay, recombinant DHS2^A11. The note with it: for IC50: read-out: IC50 of effector molecule on DHS2^A11. On the procedure:
as §1, §2

Another assay concerns the target T4, DHS2^F1 (Arabidopsis thaliana, UniProt Q00218, L136F).
T4 construct: without the predicted plastid transit peptide (amino acid residues; 49-525, 34-507, and 52-527, respectively); made in house; host or cells: E. coli
The experiment in a line: DHS enzyme assay, recombinant DHS2^F1. The note with it: for IC50: read-out: IC50 of effector molecule on DHS2^F1. How it is done: as §1, §2

Assay [1] has as its target T5, Arabidopsis thaliana DHS1 (SEQ ID NO:1) variant DHS1^B4 (sotaB4), G244R (Arabidopsis thaliana, UniProt P29976, G244R).
T5 construct: without the predicted plastid transit peptide (amino acid residues; 49-525, 34-507, and 52-527, respectively); made in house; host or cells: E. coli
The experiment in a line: DHS enzyme assay with effector, DHS1 sotaB4. How it is done:
as §1, §2

Assay [2] concerns the target T6, Arabidopsis thaliana DHS2 (SEQ ID NO:2) variant DHS2^A4 (sotaA4), G222S (Arabidopsis thaliana, UniProt Q00218, G222S).
T6 construct: without the predicted plastid transit peptide (amino acid residues; 49-525, 34-507, and 52-527, respectively); made in house; host or cells: E. coli
The experiment in a line: biochemical. How it is done:
as §1, §2

For assay [3], the target named is T7, Arabidopsis thaliana DHS2 (SEQ ID NO:2) variant DHS2^A11 (sotaA11), A224T (Arabidopsis thaliana, UniProt Q00218, A224T).
T7 construct: without the predicted plastid transit peptide (amino acid residues; 49-525, 34-507, and 52-527, respectively); made in house; host or cells: E. coli
As to the kind of experiment: DHS enzyme assay with effector, DHS2 sotaA11. On the procedure:
as §1
(§3) The DHS enzyme assays were conducted using the colorimetric method that we recently described (9). Briefly, the enzyme solution (7.7 μl) containing 50 mM Hepes (pH 7.4) was preincubated with an effector molecule(s) at room temperature for 15 min. For assays using recombinant protein and enzyme fractions isolated from plant leaves, 0.01 to 0.1 μg and approximately 50 μg of proteins were used, respectively. After adding 0.5 μl of 0.1 M dithiothreitol, the samples were further incubated at room temperature for 15 min. […] The absorbance of the pink supernatant was read at 549 nm with the microplate reader (Infinite 200 PRO, TECAN) to calculate DAHP production with the molar extinction coefficient at 549 nm (ε=549 nm) of 4.5×10^4 M^−1 cm^−1. […]

For assay [4], the target named is T8, Arabidopsis thaliana DHS2 (SEQ ID NO:2) variant DHS2^F1 (sotaF1), L136F (Arabidopsis thaliana, UniProt Q00218, L136F).
T8 construct: without the predicted plastid transit peptide (amino acid residues; 49-525, 34-507, and 52-527, respectively); made in house; host or cells: E. coli
As to the kind of experiment: DHS enzyme assay with effector, DHS2 sotaF1. How it is done:
as §1, §3

In assay [5] the target is Arabidopsis thaliana DHS3 (AtDHS3), wild type (DHS3^WT), SEQ ID NO:3 (Arabidopsis thaliana, UniProt Q9SK84). As to the kind of experiment: DHS enzyme assay with effector, Arabidopsis DHS3 WT. On the procedure:
as §1, §3

Assay [6] has as its target Arabidopsis thaliana DHS3 (SEQ ID NO:3) variant DHS3^G1 (sotaG1), A240T (Arabidopsis thaliana, UniProt Q9SK84, A240T). As to the kind of experiment: DHS enzyme assay with effector, DHS3 sotaG1. On the procedure:
as §1, §3

Assay [7] addresses Arabidopsis thaliana DHS3 (SEQ ID NO:3) variant DHS3^H1 (sotaH1), G114R (Arabidopsis thaliana, UniProt Q9SK84, G114R). The experiment in a line: DHS enzyme assay with effector, DHS3 sotaH1. How it is done:
as §1, §3

[8] abbreviates: DHS3^WT, 4 mM E4P, 4 mM PEP, pH 7.4, 37° C., read-out: IC50.

Structures are written as SMILES. Where two headings read alike, the source gives them in different places.

Chain of Arabidopsis thaliana DHS3 (AtDHS3), wild type (DHS3^WT), SEQ ID NO:3 (Q9SK84 entry or part of it): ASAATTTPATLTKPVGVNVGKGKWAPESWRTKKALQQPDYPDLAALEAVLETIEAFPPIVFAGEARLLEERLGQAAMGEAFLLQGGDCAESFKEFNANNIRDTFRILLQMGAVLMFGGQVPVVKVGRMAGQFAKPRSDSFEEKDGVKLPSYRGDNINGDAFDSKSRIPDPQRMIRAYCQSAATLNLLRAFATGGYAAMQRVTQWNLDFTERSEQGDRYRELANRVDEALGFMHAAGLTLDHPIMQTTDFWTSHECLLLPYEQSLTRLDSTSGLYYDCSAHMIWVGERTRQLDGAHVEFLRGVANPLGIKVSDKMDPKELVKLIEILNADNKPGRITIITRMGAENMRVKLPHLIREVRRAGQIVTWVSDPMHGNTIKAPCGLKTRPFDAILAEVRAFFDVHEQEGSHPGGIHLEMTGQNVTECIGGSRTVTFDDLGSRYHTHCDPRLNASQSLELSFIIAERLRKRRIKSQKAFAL
Chain of Arabidopsis thaliana DHS3 (SEQ ID NO:3) variant DHS3^G1 (sotaG1), A240T (Q9SK84 entry or part of it A240T): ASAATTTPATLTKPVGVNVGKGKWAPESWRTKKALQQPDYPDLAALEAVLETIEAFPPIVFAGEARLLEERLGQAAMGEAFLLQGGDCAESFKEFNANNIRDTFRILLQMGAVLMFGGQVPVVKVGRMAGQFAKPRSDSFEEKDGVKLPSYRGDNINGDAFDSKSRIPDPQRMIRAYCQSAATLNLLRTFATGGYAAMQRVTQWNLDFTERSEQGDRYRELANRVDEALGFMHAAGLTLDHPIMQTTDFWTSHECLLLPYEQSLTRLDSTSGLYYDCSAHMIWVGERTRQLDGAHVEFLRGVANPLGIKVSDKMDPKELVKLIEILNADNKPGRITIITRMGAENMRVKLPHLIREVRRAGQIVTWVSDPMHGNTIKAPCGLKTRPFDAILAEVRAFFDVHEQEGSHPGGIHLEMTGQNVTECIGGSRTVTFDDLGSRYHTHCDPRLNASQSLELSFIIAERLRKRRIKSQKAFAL
T7 sequence (Q00218 34-507 A224T): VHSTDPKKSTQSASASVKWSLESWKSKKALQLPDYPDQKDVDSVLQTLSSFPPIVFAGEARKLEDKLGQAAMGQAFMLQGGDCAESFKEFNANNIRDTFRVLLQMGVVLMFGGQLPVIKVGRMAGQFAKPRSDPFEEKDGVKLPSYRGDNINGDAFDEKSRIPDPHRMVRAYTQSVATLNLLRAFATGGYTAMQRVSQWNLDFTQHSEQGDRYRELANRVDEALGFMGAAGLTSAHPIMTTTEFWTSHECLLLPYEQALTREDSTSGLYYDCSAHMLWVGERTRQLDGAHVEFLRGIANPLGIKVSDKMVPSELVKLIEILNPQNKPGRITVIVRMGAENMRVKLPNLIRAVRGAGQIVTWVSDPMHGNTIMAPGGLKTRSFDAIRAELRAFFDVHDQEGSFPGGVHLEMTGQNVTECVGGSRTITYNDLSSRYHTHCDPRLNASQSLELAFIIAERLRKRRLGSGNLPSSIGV
T3 sequence (Q00218 34-507 A224T): as above
T8 sequence (Q00218 34-507 L136F): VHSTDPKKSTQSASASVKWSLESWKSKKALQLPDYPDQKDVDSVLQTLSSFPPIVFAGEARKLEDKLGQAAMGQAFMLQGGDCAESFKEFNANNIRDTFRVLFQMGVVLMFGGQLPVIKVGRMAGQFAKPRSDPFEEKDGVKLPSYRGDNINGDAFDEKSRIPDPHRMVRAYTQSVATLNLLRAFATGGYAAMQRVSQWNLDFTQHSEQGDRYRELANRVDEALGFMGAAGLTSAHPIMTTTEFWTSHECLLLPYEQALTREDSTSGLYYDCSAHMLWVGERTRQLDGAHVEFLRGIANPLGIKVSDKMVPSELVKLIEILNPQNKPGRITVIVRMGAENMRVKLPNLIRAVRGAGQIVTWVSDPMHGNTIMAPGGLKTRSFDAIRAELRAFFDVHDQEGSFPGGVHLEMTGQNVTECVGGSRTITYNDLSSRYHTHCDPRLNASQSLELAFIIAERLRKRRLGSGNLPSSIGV
T4 sequence (Q00218 34-507 L136F): as above
T5 sequence (P29976 49-525 G244R): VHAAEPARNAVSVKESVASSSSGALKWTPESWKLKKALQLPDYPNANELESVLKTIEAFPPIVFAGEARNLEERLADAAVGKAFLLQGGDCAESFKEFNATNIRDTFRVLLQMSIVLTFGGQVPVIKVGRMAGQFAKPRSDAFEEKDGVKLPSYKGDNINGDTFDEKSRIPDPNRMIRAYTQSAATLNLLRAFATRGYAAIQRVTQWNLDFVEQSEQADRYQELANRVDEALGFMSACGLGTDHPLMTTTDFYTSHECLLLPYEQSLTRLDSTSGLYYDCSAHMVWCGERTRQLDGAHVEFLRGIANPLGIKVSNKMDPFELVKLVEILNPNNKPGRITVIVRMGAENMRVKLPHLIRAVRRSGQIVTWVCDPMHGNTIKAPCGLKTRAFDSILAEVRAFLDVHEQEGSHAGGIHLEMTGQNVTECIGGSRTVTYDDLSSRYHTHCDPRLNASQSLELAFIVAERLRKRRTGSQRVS
T1 sequence (P29976 49-525 G244R): as above
T6 sequence (Q00218 34-507 G222S): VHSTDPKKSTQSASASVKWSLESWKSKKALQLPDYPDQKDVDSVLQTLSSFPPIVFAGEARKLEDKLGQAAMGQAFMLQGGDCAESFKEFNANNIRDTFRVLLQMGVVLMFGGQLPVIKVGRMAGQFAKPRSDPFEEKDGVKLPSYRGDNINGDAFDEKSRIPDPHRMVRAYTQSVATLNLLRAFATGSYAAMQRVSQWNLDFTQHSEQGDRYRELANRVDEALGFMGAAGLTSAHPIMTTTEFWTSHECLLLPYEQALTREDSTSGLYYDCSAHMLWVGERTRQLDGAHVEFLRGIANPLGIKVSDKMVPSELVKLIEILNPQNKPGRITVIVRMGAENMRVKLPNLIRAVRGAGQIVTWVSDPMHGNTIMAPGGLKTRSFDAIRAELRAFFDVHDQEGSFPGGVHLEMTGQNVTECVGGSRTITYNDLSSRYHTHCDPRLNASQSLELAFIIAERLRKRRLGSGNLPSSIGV
T2 sequence (Q00218 34-507 G222S): as above

As for `O=C(O)Cc1cc(O)ccc1O` [HGA, homogentisate], the IC50 on DHS1^B4 stood at 2990 µM; on DHS2^A4 (recombinant enzyme), 212 µM; on DHS2^A11 (recombinant enzyme) it was 242 µM; on DHS2^F1 (recombinant enzyme) it was 788 µM; in assay [1], 2990 µM; in [2] it was 212 µM. For the same compound, the half-maximal inhibitory concentration (IC50) was found to be 242 µM in [3]; 788 µM in assay [4]; 102 µM in assay [5]; 375 µM in assay [6]; 405 µM in assay [7].
Turning to `O=C(O)C(=O)Cc1ccc(O)cc1` [HPP, 4-Hydroxyphenylpyruvate], the IC50 on DHS1^B4 was 835 µM; on DHS2^A4 (recombinant enzyme) it was 143 µM; at DHS2^A11 (recombinant enzyme) it was 58.6 µM; on DHS2^F1 (recombinant enzyme), 321 µM; in assay [1], 835 µM; in [2], 143 µM. For the same compound, the IC50 in [3] came to 58.6 µM; in [4], 321 µM; in assay [5] (setting [8]), 516 µM; in [6], 915 µM; in assay [7], 903 µM.
For `O=C(O)C(=O)Cc1c[nH]c2ccccc12` [IPA, indole-3-pyruvate], the IC50 on DHS1^B4 was 5000 µM; on DHS2^A4 (recombinant enzyme), 73.4 µM; at DHS2^A11 (recombinant enzyme) it was 90.6 µM; at DHS2^F1 (recombinant enzyme), 74 µM; in assay [1], 5000 µM; in assay [2], 73.4 µM. Besides, the IC50 came to 90.6 µM in assay [3]; 74 µM in [4]; 25.3 µM in [5] (setting [8]); 273 µM in assay [6]; 108 µM in assay [7].
On to `N[C@@H](Cc1c[nH]c2ccccc12)C(=O)O` [Trp, tryptophan], for which the “IC50 of effector molecule on DHS1^B4” value on DHS1^B4 was “Not inhibited”. For the same compound, the “inhibition of DHS2^A4 activity” value against DHS2^A4 (effector up to 1 mM) was “not inhibited”. The “IC50 of effector molecule on DHS2^A4” value at DHS2^A4 (recombinant enzyme) is listed as “Not inhibited”. In addition, the “inhibition of DHS2^A11 activity” value on DHS2^A11 (effector up to 1 mM) is “not inhibited”. For the same compound, the “IC50 of effector molecule on DHS2^A11” value on DHS2^A11 (recombinant enzyme) is “Not inhibited”. Further, on DHS2^F1 (effector up to 1 mM), the “inhibition of DHS2^F1 activity” value is given as “not inhibited”. In addition, at DHS2^F1 (recombinant enzyme), the “IC50 of effector molecule on DHS2^F1” value is “Not inhibited”.

By IC50 is commonly meant the concentration needed to halve the response being measured.
